According to patent US20170050957A1, “4-AMINO-6-(HETEROCYCLIC)PICOLINATES AND 6-AMINO-2-(HETEROCYCLIC)PYRIMIDINE-4-CARBOXYLATES AND THEIR USE AS HERBICIDES” (Dow AgroSciences LLC, priority 2013, published 2017):
Read-outs that look alike come from different tables or passages of the source.

Columns and labels:
[1] = test system: Key Broadleaf Weed and Crop Species; experiment: Post-emergent Test II herbicidal activity (Table 15); format: in vivo; details: post-emergence, 336 h, 14 d; for pest or weed control at 35 g/ha: 35 g ai/ha; for pest or weed control at 70 g/ha: 70 g ai/ha; for pest or weed control at 140 g/ha: 140 g ai/ha
Method in brief: (§1)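 Visual injury rating (0 = none, 100 = complete kill) taken 14 d after treatment, relative to untreated plants. Compounds in acetone/DMSO with crop oil concentrate and Triton X-155 were track-sprayed at 187 L/ha onto seedlings at the first-second true leaf stage.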

[2] = test system: Key Grass and Sedge Weeds as well as Grass Crops; experiment: Post-emergent Test II herbicidal activity (Table 16); format: in vivo; details: post-emergence, 336 h, 14 d; for pest or weed control at 35 g/ha: 35 g ai/ha; for pest or weed control at 70 g/ha: 70 g ai/ha; for pest or weed control at 140 g/ha: 140 g ai/ha
Method in brief: as §1

[3] = Abutilon theophrasti, velvetleaf (Abutilon theophrasti), read-out: Visual Growth Reduction (%) 14 Days After Application, ABUTH
[4] = Amaranthus retroflexus, redroot pigweed (Amaranthus retroflexus), read-out: Visual Growth Reduction (%) 14 Days After Application, AMARE
[5] = Brassica napus, oilseed rape, canola (Brassica napus), read-out: Visual Growth Reduction (%) 14 Days After Application, BRSNN
[6] = Chenopodium album, lambsquarters (Chenopodium album), read-out: Visual Growth Reduction (%) 14 Days After Application, CHEAL
[7] = Euphorbia heterophylla, wild poinsettia (Euphorbia heterophylla), read-out: Visual Growth Reduction (%) 14 Days After Application, EPHHL
[8] = Helianthus annuus, sunflower (Helianthus annuus), read-out: Visual Growth Reduction (%) 14 Days After Application, HELAN
[9] = Cyperus esculentus, yellow nutsedge (Cyperus esculentus), read-out: Visual Growth Reduction (%) 14 Days After Application, CYPES
[10] = Echinochloa crus-galli, barnyardgrass (Echinochloa crus-galli), read-out: Visual Growth Reduction (%) 14 Days After Application, ECHCG
[11] = Oryza sativa, rice (Oryza sativa), read-out: Visual Growth Reduction (%) 14 Days After Application, ORYSA
[12] = Setaria faberi, giant foxtail (Setaria faberi), read-out: Visual Growth Reduction (%) 14 Days After Application, SETFA
[13] = Triticum aestivum, wheat, spring (Triticum aestivum), read-out: Visual Growth Reduction (%) 14 Days After Application, TRZAS
[14] = Zea mays, maize, corn (Zea mays), read-out: Visual Growth Reduction (%) 14 Days After Application, ZEAMX

## COC(=O)c1nc(-c2ccc3ccoc3c2F)cc(N)c1Cl [Compound 2.11]
[1]; [3]
  pest or weed control at 35 g/ha: 95 to 100%
  pest or weed control at 70 g/ha: 95 to 100%
  pest or weed control at 140 g/ha: 95 to 100%
[1]; [4]
  pest or weed control at 35 g/ha: 95 to 100%
  pest or weed control at 70 g/ha: 95 to 100%
  pest or weed control at 140 g/ha: 95 to 100%
[1]; [5]
  pest or weed control at 35 g/ha: 75 to 84%
  pest or weed control at 70 g/ha: 85 to 94%
  pest or weed control at 140 g/ha: 95 to 100%
[1]; [6]
  pest or weed control at 35 g/ha: 95 to 100%
  pest or weed control at 70 g/ha: 95 to 100%
  pest or weed control at 140 g/ha: 95 to 100%
[1]; [7]
  pest or weed control at 35 g/ha: 95 to 100%
  pest or weed control at 70 g/ha: 95 to 100%
  pest or weed control at 140 g/ha: 95 to 100%
[1]; [8]
  pest or weed control at 35 g/ha: 45 to 59%
  pest or weed control at 70 g/ha: 60 to 74%
  pest or weed control at 140 g/ha: 75 to 84%
[2]; [9]
  pest or weed control at 35 g/ha: 0 to 29%
  pest or weed control at 70 g/ha: 0 to 29%
  pest or weed control at 140 g/ha: 30 to 44%
[2]; [10]
  pest or weed control at 35 g/ha: 85 to 94%
  pest or weed control at 70 g/ha: 95 to 100%
  pest or weed control at 140 g/ha: 95 to 100%
[2]; [11]
  pest or weed control at 35 g/ha: 0 to 29%
  pest or weed control at 70 g/ha: 0 to 29%
  pest or weed control at 140 g/ha: 0 to 29%
[2]; [12]
  pest or weed control at 35 g/ha: 45 to 59%
  pest or weed control at 70 g/ha: 60 to 74%
  pest or weed control at 140 g/ha: 75 to 84%
[2]; [13]
  pest or weed control at 35 g/ha: 0 to 29%
  pest or weed control at 70 g/ha: 0 to 29%
  pest or weed control at 140 g/ha: 30 to 44%
[2]; [14]
  pest or weed control at 35 g/ha: 45 to 59%
  pest or weed control at 70 g/ha: 60 to 74%
  pest or weed control at 140 g/ha: 85 to 94%
other
  melting point: 148 °C
